The values that follow come from patent US4195172A.

In brackets after ≈: the same amount, converted by molar mass. Several values for one entry are separate records, joined by “and”; a condition that tells them apart may be missing. Equal values may be shown once. Where a name gives a salt, the structure may show the parent alone. Read-outs that look alike come from different tables or passages of the source.

Data set [1] is described as follows: IC50 of products of the examples and original antibiotics. The data set is classed as cell-based. The note with it: test organism not given.
The subject of a further data set is Geotrichum candidum. Description: Protection of mice in generalized geotrichosis. The data set is classed as in vivo. As for the experimental part:
(§1) Average protective DP50 doses
(§2) 24 hours in a case of genera-

A further data set relates to Aspergillus fumigatus. Description: Protection of mice in generalized aspergillosis. Format: in vivo. How it is done: as §1, §2
The nature of data set [2]: Acute toxicity on intravenous administration in mice. The following applies: mouse, in vivo, administered intravenously, read-out: DL50 (the source's name).
A short description of data set [3]: Selective toxicity: hemolysis of human erythrocytes versus potassium ion effluence from Saccharomyces cerevisiae cells. The data set is classed as cell-based. The following applies: human erythrocytes vs saccharomyces cerevisiae; 50% hemolysis of human erythrocytes / 50% potassium effluence from Saccharomyces cerevisiae cells; column head is drawing 2; read-out: Selective toxicity index EH50/DK50. The text has this:
(§3) The data representing the selective toxicity are also more advantageous for the N-methylglucamine salt of N-glycosyl derivatives of polyene macrolides than for Fungizone. The indices of selective toxicity EK50 /DK50 and EH50 /DK50, illustrating the ratio of the minimal antibiotic concentration causing 50% effluence of the potassium ions from erythrocytes of human blood/EK50 /and the minimal concentration of antibiotic causing 50% hemolysis of erythrocytes/EH50 /to the minimal antibiotic concentration causing 50% effluence of the potassium ions from Saccharomyces cerevisiae cells/DK50 /are compared in Table 6.

A short description of data set [4]: Selective toxicity: potassium ion effluence from human erythrocytes versus Saccharomyces cerevisiae cells. Format: cell-based. The note with it: human erythrocytes vs saccharomyces cerevisiae; 50% effluence of potassium ions from human erythrocytes / from Saccharomyces cerevisiae cells; column head is drawing 1; read-out: Selective toxicity index EK50/DK50.
Text: as §3

Data set [5] is described as follows: Presence of antibiotic in serum after intravenous administration to rats. The data set is classed as in vivo. The text has this: In intravenous administration to rats of N-methylglucamine salts of polyene macrolide N-glycosyl derivatives as compared to Fungizone the effect is much more advantageous for the N-methylglucamine salts because the presence of antibiotic in the serum after administration can be found longer that in the case of Fungizone/Table 5/.

A short description of the next data set: pH of 1% water solution. Format: physicochemical.
Data set [6] is described as follows: Biological activity in U/mg. The data set is classed as cell-based.
The subject of another data set is Candida albicans. Description: Experimental chemotherapy of Candida albicans infected mice. The data set is classed as in vivo. The following applies: Fungizone = 1. The text has this:
The relative activity index representing the antibiotic activity in experimental chemotherapy of Candida albicans infected mice is much more advantageous for the N-methylglucamine salts of the N-glycosyl derivatives of polyene macrolides than for Fungizone/Table 4/.

The conditions of data set [7]: prior art; cited from earlier work.

In the case of `C[C@@H]1[C@H](O)[C@@H](C)/C=C/C=C/C=C/C=C/C=C/C=C/C=C/[C@H](O[C@@H]2O[C@H](C)[C@@H](O)[C@H](NC3O[C@H](CO)[C@@H](O)[C@H](O)[C@H]3O)[C@@H]2O)C[C@@H]2O[C@](O)(C[C@@H](O)C[C@@H](O)[C@H](O)CC[C@@H](O)C[C@@H](O)CC(=O)O[C@H]1C)C[C@H](O)[C@H]2C(=O)O` (stereo partly drawn) [Example I, sodium salt of the N-glycosyl derivative of the amphotericin B], in [1], the IC50 (as a rule, the concentration at which inhibition is half-maximal) came to 0.05 µg/mL.

`C[C@@H]1[C@H](O)[C@@H](C)/C=C/C=C/C=C/C=C/C=C/C=C/C=C/[C@H](O[C@@H]2O[C@H](C)[C@@H](O)[C@H](NC3O[C@H](CO)[C@@H](O)[C@H](O)[C@H]3O)[C@@H]2O)C[C@@H]2O[C@](O)(C[C@@H](O)C[C@@H](O)[C@H](O)CC[C@@H](O)C[C@@H](O)CC(=O)O[C@H]1C)C[C@H](O)[C@H]2C(=O)O` (stereo partly drawn) [II, tris salt of the N-glycosyl derivative of amphotericin B] returned an IC50 in [1] of 0.6 µg/mL.

Regarding `C[C@@H]1[C@H](O)[C@@H](C)/C=C/C=C/CC/C=C/C=C/C=C/C=C/[C@H](O[C@@H]2O[C@H](C)[C@@H](O)[C@H](NC3O[C@H](CO)[C@@H](O)[C@H](O)[C@H]3O)[C@@H]2O)C[C@@H]2O[C@](O)(C[C@@H](O)[C@H](O)CC[C@@H](O)C[C@@H](O)C[C@@H](O)CC(=O)O[C@H]1C)C[C@H](O)[C@H]2C(=O)O` (stereo partly drawn) [N-methylglucamine salt of N-glycosyl derivative of nystatin] [listing 1 of 2 here], the ED50 in the data set with Geotrichum candidum (Geotrichum candidum, read-out: Average protective DP50 doses, generalized geotrichosis) was 4.49 mg/kg; with Aspergillus fumigatus (Aspergillus fumigatus, read-out: Average protective DP50 doses, generalized aspergillosis), 6.28 mg/kg. Besides, the LD50 in data set [2] worked out at 19 mg/kg. Further, the selectivity ratio was found to be 45 in data set [3] and 17.3 in data set [4].

With `C[C@@H]1[C@H](O)[C@@H](C)/C=C/C=C/CC/C=C/C=C/C=C/C=C/[C@H](O[C@@H]2O[C@H](C)[C@@H](O)[C@H](NC3O[C@H](CO)[C@@H](O)[C@H](O)[C@H]3O)[C@@H]2O)C[C@@H]2O[C@](O)(C[C@@H](O)[C@H](O)CC[C@@H](O)C[C@@H](O)C[C@@H](O)CC(=O)O[C@H]1C)C[C@H](O)[C@H]2C(=O)O` (stereo partly drawn) [N-methylglucamine salt of N-glycosyl derivative of nystatin] [listing 2 of 2 here], the “in vivo activity compared with Fungizone (in words), geotrichosis” value in the data set with Geotrichum candidum (generalized geotrichosis caused by Geotrichum candidum) was “higher activity than Fungizone”. For the same molecule, the “Time of the presence of an antibiotic in serum after 1/5 DL50 dose administration” value in data set [5] was found to be 30 min. In addition, in “pH of 1% water solution”, the “pH 1% water solution” value amounted to 8.3. For the same molecule, the “in vivo activity compared with Fungizone (in words), aspergillosis” value in the data set on Aspergillus fumigatus (aspergillosis caused by Aspergillus fumigatus) is listed as “higher activity than Fungizone”. Besides, the Biological activity in data set [6] stood at 1780 U/mg. Also, in the data set with Candida albicans, the “Relative activity index in Candida albicans mice infection” value turned out to be 2.41. For the same molecule, the Solubility in water in the data set “Solubility in water” was over 15%.

As for `C[C@@H]1[C@H](O)[C@@H](C)/C=C/C=C/CC/C=C/C=C/C=C/C=C/[C@H](O[C@@H]2O[C@H](C)[C@@H](O)[C@H](NC3O[C@H](CO)[C@@H](O)[C@H](O)[C@H]3O)[C@@H]2O)C[C@@H]2O[C@](O)(C[C@@H](O)[C@H](O)CC[C@@H](O)C[C@@H](O)C[C@@H](O)CC(=O)O[C@H]1C)C[C@H](O)[C@H]2C(=O)O` (stereo partly drawn) [Sodium salt of N-glycosyl derivative of nystatin] [reference compound], the “pH 1% water solution” value in “pH of 1% water solution” was found to be 9.7. This molecule displayed a Biological activity in data set [6] of 1296 U/mg. In “Solubility in water”, the Solubility in water is on record as 4-10%.

Take `C[C@@H]1[C@H](O)[C@@H](C)/C=C/C=C/CC/C=C/C=C/C=C/C=C/[C@H](O[C@@H]2O[C@H](C)[C@@H](O)[C@H](NC3O[C@H](CO)[C@@H](O)[C@H](O)[C@H]3O)[C@@H]2O)C[C@@H]2O[C@](O)(C[C@@H](O)[C@H](O)CC[C@@H](O)C[C@@H](O)C[C@@H](O)CC(=O)O[C@H]1C)C[C@H](O)[C@H]2C(=O)O` (stereo partly drawn) [VII, N-methylglucamine salt of the N-glycosyl derivative of nystatin]: the concentration for half-maximal inhibition (IC50) in data set [1] (read-out: IC50) was 0.45 µg/mL.

As for `C[C@@H]1[C@H](O)[C@@H](C)/C=C/C=C/C=C/C=C/C=C/C=C/C=C/[C@H](O[C@@H]2O[C@H](C)[C@@H](O)[C@H](NC3O[C@H](CO)[C@@H](O)[C@H](O)[C@H]3O)[C@@H]2O)C[C@@H]2O[C@](O)(C[C@@H](O)C[C@@H](O)[C@H](O)CC[C@@H](O)C[C@@H](O)CC(=O)O[C@H]1C)C[C@H](O)[C@H]2C(=O)O` (stereo partly drawn) [VIII, N-methylglucamine salt of N-glycosyl derivative of amphotericin B], in [1], the 50% inhibitory concentration (IC50) stood at 0.1 µg/mL.

Consider `C[C@@H]1[C@H](O)[C@@H](C)/C=C/C=C/CC/C=C/C=C/C=C/C=C/[C@H](O[C@@H]2O[C@H](C)[C@@H](O)[C@H](NC3O[C@H](CO)[C@H](O)[C@H](O)[C@H]3O)[C@@H]2O)C[C@@H]2O[C@](O)(C[C@@H](O)[C@H](O)CC[C@@H](O)C[C@@H](O)C[C@@H](O)CC(=O)O[C@H]1C)C[C@H](O)[C@H]2C(=O)O` (stereo partly drawn) [X, N-methylglucamine salt of N-glycosyl nystatin], for which the 50% inhibitory concentration (IC50) in [1] (read-out: IC50) came to 0.45 µg/mL.

For the molecule `C[C@@H]1[C@H](O)[C@@H](C)/C=C/C=C/CC/C=C/C=C/C=C/C=C/[C@H](O[C@@H]2O[C@H](C)[C@@H](O)[C@H](NC3O[C@H](CO)[C@@H](O[C@H]4O[C@H](CO)[C@@H](O)[C@H](O)[C@H]4O)[C@H](O)[C@H]3O)[C@@H]2O)C[C@@H]2O[C@](O)(C[C@@H](O)[C@H](O)CC[C@@H](O)C[C@@H](O)C[C@@H](O)CC(=O)O[C@H]1C)C[C@H](O)[C@H]2C(=O)O` (stereo partly drawn) [XI, N-methylglucamine salt of N-glycosyl nystatin], in data set [1] (read-out: IC50), the IC50 came out at 0.45 µg/mL.

Take `COC(=O)[C@H]1[C@@H]2C[C@@H](O[C@@H]3O[C@H](C)[C@@H](O)[C@H](N)[C@@H]3O)/C=C/C=C/C=C/C=C/C=C/C=C/C=C/[C@H](C)[C@@H](O)[C@@H](C)[C@H](C)OC(=O)C[C@H](O)C[C@H](O)CC[C@@H](O)[C@H](O)C[C@H](O)C[C@](O)(C[C@@H]1O)O2` [hydrochloride of methyl esters of amphotericin B]: in [7], the “solubility in water (in words, from literature)” value is on record as “forms in water merely micelle”.

On to `C[C@@H]1[C@H](O)[C@@H](C)/C=C/C=C/CC/C=C/C=C/C=C/C=C/[C@H](O[C@@H]2O[C@H](C)[C@@H](O)[C@H](N)[C@@H]2O)C[C@@H]2O[C@](O)(C[C@@H](O)[C@H](O)CC[C@@H](O)C[C@@H](O)C[C@@H](O)CC(=O)O[C@H]1C)C[C@H](O)[C@H]2C(=O)O` [nystatin, reference compound], for which, in data set [1] (read-out: IC50), the half-inhibitory concentration (IC50) was found to be 0.18 µg/mL (≈ 0.194 µM).

Consider polifungin [reference compound], for which, in data set [1], the concentration for half-maximal inhibition (IC50) is 0.15 µg/mL and 0.16 µg/mL.
